Data taken from patent US20120178695A1, “METHODS OF TREATING NEUROPATHIC PAIN” (priority 2009, published 2012).
Peptide text beside a SMILES is read from it.

How the values were obtained:
[1] = tested on: rat formalin model of tonic pain; experiment: rat formalin model of tonic pain; assay type: in vivo; conditions: for antinociceptive efficacy (percentage analgesia, late phase response): subcutaneous before formalin, second phase 10-40 min after formalin
Experimental: FIG. 1 depicts the antinociceptive actions of GLYX-13 and gabapentin in the rat formalin model of tonic pain. Percentage analgesia is the percentage reduction (on the basis of the area under the curve for vehicle+formalin) in flinches in the late phase response (10-40 min) after intraplantar formalin injection ([…] of 5% formalin) compared with control values arbitrarily set at 100%. Drugs were administered subcutaneously, 15 min before formalin. N=8-10 per group. Mean±SEM.
Antinociceptive actions of GLYX-13 were conducted in a rat formalin assay. Male Sprague-Dawley rats (125-170 g) were manually restrained for a subcutaneous injection of 1.5% formalin ([…] with a 26 ga needle) into the lateral footpad on the plantar surface of the left hind paw. After formalin injections, rats were placed in individual clear plastic cylinders of 30 cm diameter. Drug effects on the second phase of the pain response were monitored with observations conducted over the period between 10 and 40 min after formalin injection. Each group was composed of 10 animals. Vehicle, GLYX-13, or gabapentin was administered subcutaneously at the nape of the neck 10 min before the formalin injection. The time spent licking or elevating the injected limb was quantitated over this […] observation period.

[2] = tested on: chronic constriction nerve injury model of neuropathic pain; experiment: chronic constriction nerve injury model of neuropathic pain (Example 1); assay type: in vivo, rat; conditions: 5 mg/kg intravenously; 15 and 60 minutes after dosing
Experimental: Next, GLYX-13 was evaluated in the chronic constriction nerve injury model of neuropathic pain; 5 mg/kg GLYX-13. Male Sprague-Dawley rats (200-225 g) were anesthetized with sodium pentobarbitone (6 mg/kg, intraperitoneally) and supplemented as necessary with isoflurane (1-3% in oxygen). Under asceptic conditions, the right sciatic nerve was exposed by blunt dissection at the mid thigh level and 1 cm freed of adhering connective tissue. Four chromic catgut (4.0) ligatures were tied to lightly constrict the nerve at 1 mm intervals. The overlying muscle and skin were sutured and, upon recovery from anesthesia, the rats returned to cages of soft padded bedding and to cages with sawdust bedding after 24 h. At days 5, 7, 9, and 11 post recovery, mechanical […] was assessed with Von Frey filaments (calibration numbers, 3.61-6.10) applied to the plantar surface of the hind paw from below. The filaments were evaluated in ascending order with the threshold for both the ipsilateral and contralateral paws being evaluated. The withdrawal threshold was defined as the lowest force of two or more consecutive Von Frey filaments to elicit a withdrawal reflex. […]
The antinociceptive actions of vehicle or GLYX-13 (5 mg/kg) were evaluated at 15 and 60 minutes after dosing. […]

[3] = ataxia on rotor-rod apparatus; assay type: in vivo; conditions: 30 min after 5, 50, or 500 mg/kg intravenous administration
[4] = blood-brain barrier crossing
[5] = tested on: acetic-acid induced writhing model in mice; experiment: acetic-acid induced writhing model in mice; assay type: in vivo, mouse; conditions: male mice; 1, 5, and 10 mg/kg i.v., 5 min before i.p. 0.5% acetic acid
Experimental: GLYX-13 was tested for antinociceptive activity in an acetic-acid induced writhing model in mice. Groups of 10 male mice were dosed i.v. with either saline or GLYX-13 at 1, 5, or 10 mg/kg. Five minutes later, each mouse was injected i.p. with a solution of 0.5% acetic acid in 0.9% saline and observed for writhing behavior for five minutes. The total number of writhes for each mouse was recorded and the mean number of writhes was compared between the control and GLYX-13 treated groups.

[6] = tested on: radiant heat tail flick response; experiment: radiant heat tail flick study in rats; assay type: in vivo, rat; conditions: male rats; 1, 5, and 10 mg/kg i.v., five minutes after administration
Experimental: The ability of GLYX-13 to block the radiant heat tail flick response was determined in male rats. Groups of 10 male rats were administered either saline or GLYX-13 at 1, 5, or 10 mg/kg via i.v. injection, and five minutes following administration, the tail of each rat was exposed to a radiant heat stimulus. The time to elicit a characteristic tail flick was determined for each rat and the mean response time was determined for each group.

[7] = tested on: Randall-Selitto paw pressure model; experiment: Randall-Selitto paw pressure model in rats; assay type: in vivo, rat
Experimental: The purpose of this study was to assess the potential effect of GLYX-13 upon the pain threshold in rats using the Randall-Selitto paw pressure model. Groups of 10 male rats (20 for saline vehicle control) were injected with a 20% suspension of yeast in the right hind paw and two hours later, each rat was intravenously administered either saline or GLYX-13 at 1, 5, or 10 mg/kg. The response to mechanical pain stimulus was determined for both the inflamed and non-inflamed paw using an analgesia meter. The amount of force required to elicit paw withdrawal was measured for each rat.

[8] = tested on: rat model of peripheral neuropathy; experiment: rat model of peripheral neuropathy, mechanical allodynia (Example 5); assay type: in vivo; conditions: for group mean withdrawal threshold, nerve-injured paw: approximately 60 min post-dose
Experimental: FIG. 2 depicts the result of groups of eight male rats subjected to chronic constriction injury to the right hind limb. Following development of peripheral neuropathy, rats were administered GLYX-13, i.v. at 5, 10 or 20 mg/kg on days 12 and 13 post-operative (PO). Rats were tested for mechanical allodynia at 15 and 60 minutes post-dose on day 13 PO. The data represent mechanical allodynia readings at 15 minutes post-dose.
The ability of GLYX-13 to attenuate neuropathic pain was assessed in a rat model of peripheral neuropathy. In this study, four groups of eight male rats were subjected to surgically-induced peripheral neuropathy. Peripheral neuropathy was induced in the right hind limb of male rats by loose ligation of the right sciatic nerve according to the method of Bennett and Xie (Bennett and Xie, 1988). After 8-10 days, a peripheral neuropathy had developed in the right hind limbs as determined by sensitivity to both mechanical allodynia and thermal hyperalgesia. This pilot study consisted of four groups of eight male rats. Days 12-13 post surgery, vehicle (0.9% saline) or GLYX-13 at 5, 10, and 20 mg/kg were administered, and rats were tested for sensitivity to both the thermal stimulus and mechanical allodynia. […] The results for GLYX-13 15 minutes post dose in this rodent neuropathy model are shown FIG. 2.

[9] = tested on: rodent peripheral neuropathy model; experiment: second peripheral neuropathy study, mechanical allodynia (Example 6); assay type: in vivo, rat; conditions: 5 mg/kg i.v.
Experimental: FIG. 3 depicts the results of groups of 12 male rats subjected to chronic constriction injury to the right hind limb. Following development of peripheral neuropathy, rats were 5 administered GLYX-13, i.v. at 5, 10 or 20 mg/kg on days 12 and 13 post-operative (PO). Rats were tested for mechanical allodynia at 15 and 60 minutes post-dose on day 13 PO. The data represent mechanical allodynia readings at 60 minutes post-dose.
A second peripheral neuropathy study was performed with GLYX-13 in male Sprague- Dawley rats. A peripheral mononeuropathy was induced in the right hind limb and rats were tested for development of mechanical allodynia. Rats that had positively developed neuropathy were administered vehicle (0.9% saline) or GLYX-13 i.v. at doses of 5, 10, or 20 mg/kg on days 12 and 13 PO. Testing for mechanical allodynia was performed at 15 and 60 minutes post-dose. […] In this rodent peripheral neuropathy model, i.v. administration of5 mg/kg GLYX-13 to male rats caused a significant reduction in the sensitivity of the nerve injured hind paw to mechanical allodynia at both 15 and 60 minutes post dose. There was no evidence of any systemic or contralateral effects in this study.

[10] = tested on: intraplantar formalin pain, late phase; experiment: formalin test 8 days after a single dose (Example 7); assay type: in vivo, rat; conditions: 1 dose 3 mg/kg i.v. 8 days before intraplantar formalin (1.5%)
Experimental: FIG. 4 depicts mean±SEM percent analgesia in the late phase (30-50 min) in 3 month old Sprague-Dawley rats pretreated with GLYX-13 (3 mg/kg i.v.), ketamine (10 mg/kg i.v.) or saline vehicle injection (1 mg/ml i.v. tail vein) in freely behaving rats 8 days before left rear paw intraplantar injections (50 μl) of formalin (1.5%). Analgesia is % reduction in licking time, number of flinches, or total pain score (favoring+2×foot up+3×licking time). […] N=10-11 per group. * P<0.05 Fisher PLSD post hoc drug vs. all other groups.
Freely behaving 3 month old Sprague Dawley rats were pretreated with GLYX -13 (3 mg/kg i.v.), ketamine (10 mg/kg i.v.) or saline vehicle injection (1 mg/ml i.v. tail vein) 8 days before left rear paw intraplantar injections (50 μl) of formalin (1.5%).

C[C@@H](O)[C@H](N)C(=O)N1CCC[C@H]1C(=O)N1CCC[C@H]1C(=O)N[C@H](C(N)=O)[C@@H](C)O [GLYX-13, L-threonyl-L-prolyl-L-prolyl-L-threonine amide] (H-TPPT-NH2)
ataxia ([1]; rat, in vivo, sc): not ataxic at any of the doses examined | antinociceptive efficacy (percentage analgesia, late phase response) [1]: dose-dependent efficacy | antinociceptive action (mechanical allodynia) [2]: antinociceptive at both time points | ataxia [2]: no evidence of ataxia | ataxia, rotor-rod apparatus [3]: not found to induce ataxia | crossing of the blood-brain barrier [4]: readily crosses the blood-brain barrier in an active form | acetic acid induced writhing behavior [5]: did not block acetic acid induced writhing behavior | response time to a radiant heat stimulus (tail flick) [6]: did not result in a change in the response time | pain threshold (force to elicit paw withdrawal) ([7]; male rats, yeast-inflamed paw, 1, 5, or 10 mg/kg i.v.): no significant effect on the pain threshold | pain threshold (force to elicit paw withdrawal) ([7]; rats dosed with 5 and 10 mg/kg i.v.): Slight, but not statistically significant, increases in the pain threshold | withdrawal threshold, nerve-injured paw ([8]; 10 mg/kg i.v., 15 minutes post dose): 5.98 ± 2.25 g | withdrawal threshold, nerve-injured paw ([8]; 10 mg/kg i.v., 60 minutes post dose): 7.26 ± 2.19 g | responses of the uninjured (contralateral) hind paw ([8]; 5, 10, and 20 mg/kg, any of the time points tested): No marked changes | withdrawal threshold, nerve-injured paw ([8]; doses of 5 and 20 mg/kg): small but distinct increases in withdrawal threshold | group mean withdrawal threshold, nerve-injured paw ([8]; high dose (20 mg/kg i.v.)): 2.08 ± 1.21 g | group mean withdrawal threshold, nerve-injured paw ([8]; low dose group (5 mg/kg i.v.)): 5.04 ± 3.09 g | withdrawal threshold in the nerve injured hind paw to mechanical allodynia ([8]; male rats, 5, 10, and 20 mg/kg): marked increase in the withdrawal threshold | contralateral effects [9]: no evidence of any contralateral effects | sensitivity of the nerve-injured paw to mechanical stimuli (Von Frey filaments) ([9]; free-base, approximately 15 and 60 min post dose): statistically significant reduction in the sensitivity | analgesia in the late phase (30-50 min) of the formalin test [10]: increased analgesia 8 days after administration

NCC1(CC(=O)O)CCCCC1 [gabapentin, reference compound]
antinociceptive efficacy (percentage analgesia, late phase response) [1]: dose-dependent efficacy | ataxia ([1]; subcutaneous, doses of the formalin study (data not shown)): ataxic at the highest dose
